What was measured:
[1] = tested on: retina of aged Fisher rats; assay: Retinal morphology (H & E, rows and thickness of ONL and INL) in aged rats; format: in vivo, rat; conditions: female Fisher rats ~19-21 months, 500 nmoles/kg/day by gavage for 3 months
Procedure: (§1) Female aged (19–21 months) Fisher rats (n = 7) were given P021 per os by gavage (10 ml/kg body weight) once a day for 88 days. […] To be able to deliver the same constant dose to each animal, we chose gavage. Furthermore, the administration of P021 by gavage is more economical than by drinking water. As controls, the second group of aged (19–21 months) female rats (n = 7) and a group of young adult female rats (2–3 months, n = 7) were treated identically, but with normal saline (vehicle) only (Figure 1A). Administration of vehicle and test compound was done at 7–9 AM daily and blindly to the investigators who collected, processed, and analyzed the tissue.
(§2) The animals were anesthetized by using an overdose of avertin and then were transcardially perfused by using 0.1 M phosphate-buffered saline (PBS). Eyeballs were dissected out from the carcasses, immersion-fixed for 24 h in 4% paraformaldehyde at 4°C, and then transferred to 70% alcohol for storage; in the case of mice, the eyeballs were prefixed by injecting 4% paraformaldehyde, followed by removal from the carcasses and immersion fixation as above. After the cornea and lens of the left eyes were removed, the remaining eye cup was embedded in paraffin, with the orientation parallel to the optic nerve in longitudinal position. In all cases, 5-μm serial sections were cut by using a rotary microtome and were mounted on Superfrost Plus slides. Processing and analysis of the retinal tissue were conducted blind.
(§3) Every 25th retinal section was deparaffinized and subjected to hematoxylin and eosin (H & E) staining to evaluate the morphology. The H & E staining images were captured with a light microscope using 2×, 40×, and 100× objective lenses. Because there is no significant difference between the 1/5th to the 1/3rd of the retina from the optic nerve head and the most peripheral part, we chose the 1/5th position of the retina from the optic nerve to the most peripheral part of the retina as the “central,” and the most peripheral part of the retina as “peripheral.” Rows of the outer nuclear layer (ONL) and the inner nuclear layer (INL) of the retina in each group (every 25th section, 3–5 sections per rat or mouse, n = 5–7 rats per group; n = 5–6 mice per group) were manually counted in three columns per image by using a 40× or, where necessary, a higher magnification objective. The thicknesses of the ONL and INL of the central and peripheral retina in each group (every 25th section from the optic nerve head, 2–3 sections per rat or mouse, n = 3–7 rats per group; n = 5–6 mice per group) were measured and quantified by using the ImageJ/NIH image analysis system. Processing and analysis of the retinal tissue and the data were conducted blind to the genotypes and the treatment of the animals.

[2] = commercial service (APREDICA, Watertown, MA, USA); ref Kazim et al., 2014; cited from earlier work
[3] = tested on: GFAP; assay: Astrogliosis, GFAP immunofluorescence in retina of aged rats; format: in vivo, rat; conditions: female Fisher rats ~19-21 months, 500 nmoles/kg/day by gavage for 3 months; n = 6-7 rats; vs 22-24 m/Veh
Procedure: as §1
(§4) The animals were anesthetized by using an overdose of avertin and then were transcardially perfused by using 0.1 M phosphate-buffered saline (PBS). […]
(§5) Paraffin sections were deparaffinized, rehydrated, and subjected to antigen retrieval by boiling for 20 min in 10 mM sodium citrate solution (pH 6.0). […] The area to be analyzed was selected, converted to grayscale, and thresholded using Yen’s arithmetic, and the area percentage of positive staining was measured for each section by using the NIH ImageJ software package. The staining area was quantified from two to three sections of each eye and averaged (n = 5–7 animals per group).

[4] = tested on: VEGF; assay: VEGF immunofluorescence in retina and optic nerve of aged 3xTg-AD mice; format: in vivo, mouse; conditions: 60 nmoles P021/g feed from 3 to 21 months of age, qualitative, 2-3 animals/group
Source text: (§6) At approximately 3 months of age, the female wild type and 3xTg-AD mice were divided into five groups (n = 6–7 mice per group; Figure 3A): (1) wild type mice, age 3 months, without treatment (WT-3 m); (2) 3xTg-AD mice, age 3 months, without treatment (3xTg-3 m); (3) wild type mice, age 3 months, treated with vehicle feed without P021 until the age of 21 months (WT-21 m/Veh); (4) 3xTg-AD-mice, age 3 months, treated with vehicle feed without P021 until the age of 21 months (3xTg-21 m/Veh); and (5) 3xTg-AD-mice, age 3 months, treated with 60 nmol P021/g feed till the age of 21 months (3xTg-21 m/P021). The first two groups, WT-3 m and 3xTg-AD-3 m, were the starting points and were employed as controls to study age-associated AMD-like changes in WT-21 m and 3xTg-AD-21 m, respectively. […] Food consumption and body weight were recorded every 2 weeks and every month, respectively. […]
as §5

[5] = tested on: RPE of aged Fisher rats; assay: RPE and BM pathology (H & E, auto-fluorescence deposits) in aged rats; format: in vivo, rat; conditions: female Fisher rats ~19-21 months, 500 nmoles/kg/day by gavage for 3 months
Procedure: as §1, §4
Every 25th retinal section was deparaffinized and subjected to hematoxylin and eosin (H & E) staining to evaluate the morphology. […] Because there is no significant difference between the 1/5th to the 1/3rd of the retina from the optic nerve head and the most peripheral part, we chose the 1/5th position of the retina from the optic nerve to the most peripheral part of the retina as the “central,” and the most peripheral part of the retina as “peripheral.” Rows of the outer nuclear layer (ONL) and the inner nuclear layer (INL) of the retina in each group (every 25th section, 3–5 sections per rat or mouse, n = 5–7 rats per group; n = 5–6 mice per group) were manually counted in three columns per image by using a 40× or, where necessary, a higher magnification objective. The thicknesses of the ONL and INL of the central and peripheral retina in each group (every 25th section from the optic nerve head, 2–3 sections per rat or mouse, n = 3–7 rats per group; n = 5–6 mice per group) were measured and quantified by using the ImageJ/NIH image analysis system. […]

[6] = tested on: aged rats and mice; conditions: chronic oral treatment in aged rats and mice, earlier study; ref Kazim et al., 2014; cited from earlier work
Source text: At as early as 12 months of age, OXYS rats and Wistar rats are known to show AMD-like pathology, such as BM thickening and lipofuscin accumulation (Neroev et al., [2008]; Markovets et al., [2011]). […] Here, to assess the AMD-like retinal pathology induced by aging and to study the effect of P021 on the p ...

[7] = tested on: total tau, phosphorylated tau, Aβ/APP; assay: Tau and Aβ pathologies, immunofluorescence in retina of aged 3xTg-AD mice; format: in vivo, mouse; conditions: 60 nmoles P021/g feed from 3 to 21 months of age, qualitative, not quantified, 2-3 animals/group
Source text: as §6, §5

[8] = tested on: total tau, phosphorylated tau, Aβ/APP; assay: Tau and Aβ pathologies, immunofluorescence in retina of aged rats; format: in vivo, rat; conditions: aged Fisher rats, 500 nmoles/kg/day by gavage for 3 months; qualitative, not quantified, 2-3 animals/group
Procedure: as §1, §4, §5

[9] = tested on: Iba-1; assay: Microgliosis, Iba-1 immunofluorescence in retina of aged rats; format: in vivo, rat; conditions: female Fisher rats ~19-21 months, 500 nmoles/kg/day by gavage for 3 months
Procedure: as §1, §4, §5

[10] = method not given, block ends with ref Kazim et al., 2014, cited from earlier work
Procedure: P021 is quite stable in artificial gastric juice (~90% for 30 min) and in artificial intestinal juice (>95% for 120 min).

[11] = tested on: RPE and BM of 3xTg-AD mice; assay: RPE and BM pathology (H & E, auto-fluorescence deposits) in aged 3xTg-AD mice; format: in vivo, mouse; conditions: female 3xTg-AD mice, 60 nmoles P021/g feed from 3 to 21 months of age
Source text: as §6
Every 25th retinal section was deparaffinized and subjected to hematoxylin and eosin (H & E) staining to evaluate the morphology. […] The thicknesses of the ONL and INL of the central and peripheral retina in each group (every 25th section from the optic nerve head, 2–3 sections per rat or mouse, n = 3–7 rats per group; n = 5–6 mice per group) were measured and quantified by using the ImageJ/NIH image analysis system. […]

[12] = tested on: retina of 3xTg-AD mice; assay: Retinal morphology (H & E, rows and thickness of ONL and INL) in aged 3xTg-AD mice; format: in vivo, mouse; conditions: female 3xTg-AD mice, 60 nmoles P021/g feed from 3 to 21 months of age
Source text: (§7) At approximately 3 months of age, the female wild type and 3xTg-AD mice were divided into five groups (n = 6–7 mice per group; Figure 3A): (1) wild type mice, age 3 months, without treatment (WT-3 m); (2) 3xTg-AD mice, age 3 months, without treatment (3xTg-3 m); (3) wild type mice, age 3 months, treated with vehicle feed without P021 until the age of 21 months (WT-21 m/Veh); (4) 3xTg-AD-mice, age 3 months, treated with vehicle feed without P021 until the age of 21 months (3xTg-21 m/Veh); and (5) 3xTg-AD-mice, age 3 months, treated with 60 nmol P021/g feed till the age of 21 months (3xTg-21 m/P021). The first two groups, WT-3 m and 3xTg-AD-3 m, were the starting points and were employed as controls to study age-associated AMD-like changes in WT-21 m and 3xTg-AD-21 m, respectively. We included WT-21 m/Veh as another reference group to enable a comparison of AMD-like changes in 3xTg-21 m/Veh with age-matched WT animals. […] P021 was formulated in the feed by Research Diets (New Brunswick, NJ, USA). Food consumption and body weight were recorded every 2 weeks and every month, respectively. The average mouse food consumption was ~2.7 g feed/day. The analysis of the animals was carried out blind to the treatment.
as §2, §3

[13] = tested on: Iba-1; assay: Microgliosis, Iba-1 immunofluorescence in retina of 3xTg-AD mice; format: in vivo, mouse; conditions: female 3xTg-AD mice, 60 nmoles P021/g feed from 3 to 21 months of age
Source text: as §6, §5

[14] = tested on: GFAP; assay: Astrogliosis, GFAP immunofluorescence in retina of 3xTg-AD mice; format: in vivo, mouse; conditions: female 3xTg-AD mice, 60 nmoles P021/g feed from 3 to 21 months of age
Source text: as §7, §4, §5

In the case of Ac-DGGL^AG-NH2 [P021], the “outer retinal folds and rosette-like structures in the central retina” value [1] is reported as “No abnormal structure like this was observed”, the “rows and thickness of INL in the central retina” value [1] is reported as “no detectable effect” and the “rows and thickness of ONL, central and peripheral retina” value ([1]; vs 22-24 m/Veh) is reported as “prevented these pathological changes more effectively in the central retina”. The “rows of INL in the peripheral retina” value ([1]; vs 22-24 m/Veh) was “showed a clear trend to rescue the number of rows”, the BBB crossing [2] was “a sufficient amount of P021 crossed the BBB” and the “GFAP staining in central and peripheral retinas” value [3] was “reduced very much”. The “VEGF staining in the optic nerve” value [4] was “the size of the staining patch was decreased”, the “localization of VEGF-positive spots in the retina” value [4] was “limited mainly to the GCL to the IPL” and the “arrangement of apical microvilli (AM) in RPE” value ([5]; H & E) was “showed improvement in the arrangement of AM”. The “vacuolation and atrophy of RPE” value ([5]; H & E) was “no apparent abnormalities were observed”, the “lipofuscin granules and deposition number between RPE and Cho” value ([5]; auto-fluorescence λex = 543, n = 7 rats, vs 22-24 m/Veh) was “markedly decreased” and the “general physical state / side effects” value [6] was “did not observe any worsening in general physical state”. The “tau and Aβ pathologies in the retina (R134d, PHF-1, AT8, 4G8, Aβ immunofluorescence)” value [7] was “prevented the trend in the increase in tau and Aβ pathologies”, the “tau and Aβ pathologies in the retina (R134d, PHF-1, AT8, 4G8, Aβ immunofluorescence)” value [8] was “prevented the trend in the increase in tau and Aβ pathologies” and the “localization of Iba-1-positive microglial cells in the retina” value ([9]; especially central retina) was “no staining was found from the ONL to the OS”. The “relative Iba-1 immunostaining from the NFL to the OS, central and peripheral retinas” value ([9]; n = 6-7 rats, vs 22-24 m/Veh) was “dramatically reduced”, the “stability in artificial gastric juice” value ([10]; 30 min) was ~ 90% and the “stability in artificial intestinal juice” value ([10]; 120 min) was > 95%. The “thickening of the BM” value ([11]; H & E) was “no BM thickening”, the “number of deposits between the RPE and Cho” value ([11]; auto-fluorescence λex = 543, n = 5 mice, vs 3xTg-21 m/Veh) was “significantly reduced” and the “extension of ONL nuclei across the OPL or into the INL, central retina” value ([12]; H & E) was “this pathology was prevented”. The “prevention of changes in rows and thickness of INL in the peripheral retina” value ([12]; vs 3xTg-21 m/Veh, H & E) was “did not reach significance”, the “rows and thickness of INL in the central retina” value ([12]; vs 3xTg-21 m/Veh, H & E) was “prevented these changes” and the “rows and thickness of ONL in the central retina” value ([12]; vs 3xTg-21 m/Veh, H & E) was “these changes in the central retina were prevented”. The “rows and thickness of ONL in the peripheral retina” value ([12]; vs 3xTg-21 m/Veh, H & E) was “showed a trend to rescue these changes”, the “rescue of INL thickness in the central retina” value ([12]; vs 3xTg-21 m/Veh, obvious trend) was “did not reach statistical significance” and the “distribution of Iba-1-positive staining in the central retina” value [13] was “only observed in the GCL”. For the same substance, the “area percentage of Iba-1 immunostaining in the peripheral retina” value ([13]; NFL to ONL, n = 3-6 mice, vs 3xTg-21 m/Veh) was “decreased in 3xTg-21 m/P021 mice to the levels in WT-3 m/Veh and 3xTg-3 m/Veh mice”, the “distribution of GFAP-positive staining in the retina” value [14] was “limited to the NFL and GCL” and the “area percentage of GFAP in the peripheral retina, changes between groups” value ([14]; n = 3-6 mice, similar trend, large standard error) was “did not reach statistical significance”. For the same substance, the “area percentage of GFAP from the NFL to the ONL in the central retina” value ([14]; n = 5-6 mice, vs 3xTg-21 m/Veh) was “reduced by P021 treatment to the levels in WT-3 m/Veh and 3xTg-3 m/Veh mice”.
